We go through one molecule from paper PMC6116672, “Discovery of (phenylureido)piperidinyl benzamides as prospective inhibitors of bacterial autolysin E from Staphylococcus aureus” (Journal of Enzyme Inhibition and Medicinal Chemistry, 2018).

Each structure is given as a SMILES string.

In general, Kd refers to a measure of binding affinity in units of concentration. A higher Kd goes with lower affinity.

This assay has as its target AtlE (Staphylococcus aureus, UniProt A0A0H3JT72). Put plainly: SPR binding affinity to AtlE (steady state 1:1 model). As for the experimental part:
SPR experiments were performed using a Biacore T100 (GE Healthcare) equipped with a Series S sensor chip CM5 (GE Healthcare). PBS buffer (67 mM Na2HPO4, 12.5 mM KH2PO4, 70 mM NaCl, 0,05% P20, pH 7.4) was used for immobilisation of the protein. AtlE was produced as previously described[1] and attached to the surface of the chip by amine coupling. The surface of flow cells 1 and 2 was initially activated with a 10-min pulse of a 1:1 mixture of 0.4 M 1-ethyl-3–(3-dimethylaminopropyl)-carbodiimide hydrochloride and 0.1 M N-hydroxysuccinimide, according to manufacturer recommendations. AtlE was diluted into 10 mM sodium acetate buffer, pH 5.8, to a final concentration of 100 µg/mL, and injected twice for 180 s over the second flow cell. Both flow cells were blocked with a 7-min pulse of 1.0 M ethanolamine. The final immobilisation level was about 4100 RU. Screening was run at 25 °C using PBS (67 mM Na2HPO4, 12.5 mM KH2PO4 pH 7.4, 70 mM NaCl, 0.05% P20) supplemented with 1% or 5% DMSO (Merck) as the running buffer. Selected compounds from the virtual screening studies were tested at two different concentrations: 40 and 400 µM. Each compound was injected for 1 min at a flow-rate of 30 µL/min, and the dissociation was monitored for 30 s. […] KD values were determined by fitting of the data to a 1:1 steady state binding model.
In general terms: SPR reads the build-up and loss of mass on a sensor chip optically.

Chain of AtlE (A0A0H3JT72 entry or part of it): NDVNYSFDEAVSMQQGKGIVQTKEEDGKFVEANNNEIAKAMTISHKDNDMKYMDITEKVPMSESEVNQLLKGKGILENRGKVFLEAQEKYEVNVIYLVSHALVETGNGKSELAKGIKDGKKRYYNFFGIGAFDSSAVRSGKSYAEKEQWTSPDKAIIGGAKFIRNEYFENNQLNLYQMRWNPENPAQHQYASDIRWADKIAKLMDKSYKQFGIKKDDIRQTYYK

`O=C(Nc1cccc(Cl)c1)NC1CCN(c2cccc(C(=O)N3CCc4ccccc4C3)c2)CC1` [Compound 10] had a Kd of 1900 nM.
